Reference: PubChem BioAssay AID588383 (NMMLSC, 2011)
The source made the active and inactive calls.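 The calls were made as follows: active = half-effect concentration at most 10 µM with response change of 30% or more and an acceptable curve fit; inactive = the rest.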

Target: GTPase HRas (Homo sapiens) (UniProt P01112)
Assay: Ras wild-type GTP-binding inhibitors, SAR follow-up, selectivity assay for Cdc42 probe extension project, biochemical, multiplex bead flow cytometry, round 1 (AID 588383)
Conditions: GST-Ras wt beads, Bodipy-FL-GTP binding; for % response, lower = inhibition: at 100 µM (top of the series)

Sequence of GTPase HRas (Homo sapiens) (P01112 whole entry, looked up): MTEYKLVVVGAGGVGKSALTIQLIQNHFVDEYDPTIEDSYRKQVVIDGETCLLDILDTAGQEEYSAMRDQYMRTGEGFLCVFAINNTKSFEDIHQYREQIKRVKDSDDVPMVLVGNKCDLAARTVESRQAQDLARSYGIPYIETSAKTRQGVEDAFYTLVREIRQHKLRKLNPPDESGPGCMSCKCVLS

COc1ccc(C2CC(c3ccccc3)=NN2c2ccc(S(N)(=O)=O)cc2)cc1 (centres undefined)
% response, lower = inhibition: inactive

NS(=O)(=O)c1ccc(N2N=C(c3ccccc3)CC2c2ccccc2)cc1 (centres undefined)
% response, lower = inhibition: inactive

O=C(C#Cc1ccccc1)c1cccc([N+](=O)[O-])c1
% response, lower = inhibition: inactive

CC1(C)Cc2c(sc(NC(=S)NC(=O)c3ccccc3)c2C(=O)O)CO1
EC50: 78 nM
